Measurements: PubChem BioAssay (NCI)
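Protocol summary: plate cells (96-well), add compound at 5 concentrations, incubate 48 h, interpolate endpoints linearly. At the TGI there is no net growth.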 Where a SMILES comes first, the peptide text is derived from it. Bridges are numbered along the chain shown (N, C = ends).

Tests used:
Assay in all cases: NCI anticancer screen, dose series, 48 h
NCI-H23 lung = test system: NCI-H23 lung
SN12C renal = test system: SN12C renal
RXF 393 renal = test system: RXF 393 renal
BT-549 breast = test system: BT-549 breast
UACC-62 melanoma = test system: UACC-62 melanoma
KM12 colon = test system: KM12 colon
HCT-15 colon = test system: HCT-15 colon
SNB-75 CNS = test system: SNB-75 CNS
HCT-116 colon = test system: HCT-116 colon
IGROV1 ovarian = test system: IGROV1 ovarian

SMILES | TGI (NCI-H23 lung) [µM] | TGI (SN12C renal) [µM] | TGI (RXF 393 renal) [µM] | TGI (BT-549 breast) [µM] | TGI (UACC-62 melanoma) [µM] | TGI (KM12 colon) [µM] | TGI (HCT-15 colon) [µM] | TGI (SNB-75 CNS) [µM] | TGI (HCT-116 colon) [µM] | TGI (IGROV1 ovarian) [µM]
CNCC(SC)c1ccc(O)c(O)c1 (stereo not given) | > 100 | 45.8 | > 100 | 31 | > 100 | > 100 | > 100 | > 100 | 43.7 | > 100
COC1(C)CCC(OS(C)(=O)=O)CO1 (stereo not given) | > 100 | > 100 | > 100 | > 100 | > 100 | > 100 | > 100 | > 100 | > 100 | > 100
C/C(CC(O)(C(F)(F)F)C(F)(F)F)=N\O | > 10 | > 10 | > 10 | > 10 | > 10 | > 10 | > 10 | > 10 | > 10 | > 10
O=C(NNC(=O)c1ccncc1)C(=O)Nc1cc(Cl)c(Cl)cc1Cl | > 100 | > 100 | > 100 | > 100 | > 100 | > 100 | > 100 | > 100 | > 100 | > 100
CC(C)(C)c1cc(C(C)(C)C)c(SC2OC(CO)C(O)C(O)C2O)c(O)c1O (stereo not given) | 17.9 | 25.8 | 14.1 | 27 | 4.99 | 20.8 | 18.8 | 6.05 | 29.1 | 43.4
C#CCn1c(I)cc2c(c1=O)COC(=O)[C@]2(O)CC | > 100 | > 100 | > 100 | > 100 | > 100 | > 100 | > 100 | > 100 | > 100 | > 100
O=C(NC1=C(Cl)C(=O)c2ccccc2C1=O)C(=O)c1c(O)c2ccccc2oc1=O | 4.38 | 14.3 | 21.9 | 14.6 | 4.58 | 31.3 | 13.7 | 25 | 7.47 | 16.1
C(=Nc1ccc(-c2nc3ccccc3s2)cc1)c1cccs1 | > 100 | > 100 | 85.3 | > 100 | > 100 | > 100 | > 100 | > 100 | > 100 | > 100
O=C(Oc1cncc(Cl)c1)c1cc2ccccc2sc1=O | > 100 | > 100 | 91.1 | > 100 | > 100 | > 100 | > 100 | > 100 | > 100 | > 100
CC(=O)c1c(-c2ccco2)c(C#N)c(=S)n(C2OC(CO)C(O)C(O)C2O)c1C (stereo not given) | > 100 | > 100 | > 100 | > 100 | > 100 | > 100 | > 100 | > 100 | > 100 | > 100
COC(=O)C1CCC(=O)NCCCCC(NC(=O)C(N)CC(=O)O)C(=O)N1 (stereo not drawn) (H-Asp-Lys-Glu-OMe; lactam 2-3; configuration not given here) | > 100 | > 100 | > 100 | > 100 | > 100 | > 100 | > 100 | > 100 | > 100 | > 100
Cc1cc2ccccc2oc(=O)/c1=N\Nc1ccccc1 | > 100 | > 100 | 88.4 | > 100 | > 100 | > 100 | > 100 | 63.8 | > 100 | > 100
COC(=O)[C@@H]1C=CCN1S(=O)(=O)c1ccc(C)cc1 | > 100 | > 100 | > 100 | > 100 | > 100 | > 100 | > 100 | > 100 | > 100 | > 100
COC(=O)c1ccc(C)cc1C1CN=NC12Cc1cccc(C)c1C2=O (stereo not given) | > 100 | > 100 | > 100 | 91.4 | 53.1 | 72.5 | > 100 | > 100 | > 100 | > 100
CC(C)=CCNc1ncnc2c1ncn2CCC(=O)O | > 100 | > 100 | > 100 | > 100 | > 100 | > 100 | > 100 | > 100 | > 100 | > 100
COc1ccc(Cn2c(=O)c(OS(=O)(=O)C(F)(F)F)c(C)c3cc4ccccc4cc32)cc1 | > 100 | > 100 | > 100 | > 100 | > 100 | > 100 | > 100 | > 100 | > 100 | > 100
C=C1c2nc3ccccc3n2C=C(c2ccccc2)N1c1ccc(C)cc1 | > 100 | > 100 | > 100 | > 100 | > 100 | 56.1 | > 100 | > 100 | > 100 | > 100
